Test results as given in PMC12155096 (International Journal of Molecular Sciences, 2025).
Counter-ions that a name gives are not always drawn.

molecular target: T1, human CYP1A2 (Homo sapiens, UniProt P05177); assay: not given; settings: not given
T1 sequence (P05177 1-516): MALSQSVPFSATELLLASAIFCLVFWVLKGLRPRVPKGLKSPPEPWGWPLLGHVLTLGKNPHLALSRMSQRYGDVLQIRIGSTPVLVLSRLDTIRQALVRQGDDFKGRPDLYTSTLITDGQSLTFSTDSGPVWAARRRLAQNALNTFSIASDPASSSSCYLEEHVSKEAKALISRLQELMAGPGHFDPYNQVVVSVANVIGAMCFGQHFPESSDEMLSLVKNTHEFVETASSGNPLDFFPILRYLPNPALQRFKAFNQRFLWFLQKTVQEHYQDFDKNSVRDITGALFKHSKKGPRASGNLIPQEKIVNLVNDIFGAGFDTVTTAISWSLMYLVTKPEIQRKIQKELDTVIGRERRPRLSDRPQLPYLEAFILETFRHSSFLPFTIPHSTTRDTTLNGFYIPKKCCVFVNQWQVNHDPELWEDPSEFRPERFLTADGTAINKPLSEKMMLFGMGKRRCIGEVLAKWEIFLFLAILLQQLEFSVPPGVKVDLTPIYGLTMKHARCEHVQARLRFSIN

SMILES | CYP1A2 AC50 (half-maximal activity concentration)
O=C(Cl)c1cccc(C(=O)Cl)c1 [1,3-Benzenedicarbonyl dichloride] | Inactive
O=C(CCCN1CCN(c2ccccn2)CC1)c1ccc(F)cc1 [Azaperone] | Inactive
O=c1[nH]c2ccc([S+]([O-])CCN3CCC(Cc4ccc(F)cc4)CC3)cc2o1 (centres unmarked) [Besonprodil] | Inactive
CC1(C)C(C=C(Cl)Cl)C1C(=O)OC(C#N)c1ccc(F)c(Oc2ccccc2)c1 (centres unmarked) [Cyfluthrin] | Inactive
CCOc1ccc(C(C)(C)COCc2cccc(Oc3ccccc3)c2)cc1 [Etofenprox] | Inconclusive inhibitor
CCOC(=O)c1nc(C(Cl)(Cl)Cl)n(-c2ccc(Cl)cc2Cl)n1 [Fenchlorazole-ethyl] | Inactive
O=C(NC1CCN(CCc2c[nH]c3ccccc23)CC1)c1ccccc1 [Indoramin hydrochloride] | Inactive
Cc1cccc(C)c1NC(=O)CN1CCN(CCCC(c2ccc(F)cc2)c2ccc(F)cc2)CC1 [Lidoflazine] | Inactive
CC[N+](C)(CC)CCOC(=O)C1c2ccccc2Oc2ccccc21 [Methantheline bromide] | Inconclusive inhibitor
O=C1NC2CCCCN2C12CCN(CCCN1c3ccccc3CCc3ccc(Cl)cc31)CC2 (centres unmarked) [Mosapramine] | Inactive
CN1CCC(=C2c3ccccc3Sc3ccccc32)CC1 [Pimethixene maleate] | Inactive
c1ccc(P(c2ccccc2)c2ccccc2)cc1 [Triphenylphosphine] | Inactive

molecular target: T2, human CYP2C9 (Homo sapiens, UniProt P11712); assay: not given; settings: not given
T2 sequence (P11712 whole entry): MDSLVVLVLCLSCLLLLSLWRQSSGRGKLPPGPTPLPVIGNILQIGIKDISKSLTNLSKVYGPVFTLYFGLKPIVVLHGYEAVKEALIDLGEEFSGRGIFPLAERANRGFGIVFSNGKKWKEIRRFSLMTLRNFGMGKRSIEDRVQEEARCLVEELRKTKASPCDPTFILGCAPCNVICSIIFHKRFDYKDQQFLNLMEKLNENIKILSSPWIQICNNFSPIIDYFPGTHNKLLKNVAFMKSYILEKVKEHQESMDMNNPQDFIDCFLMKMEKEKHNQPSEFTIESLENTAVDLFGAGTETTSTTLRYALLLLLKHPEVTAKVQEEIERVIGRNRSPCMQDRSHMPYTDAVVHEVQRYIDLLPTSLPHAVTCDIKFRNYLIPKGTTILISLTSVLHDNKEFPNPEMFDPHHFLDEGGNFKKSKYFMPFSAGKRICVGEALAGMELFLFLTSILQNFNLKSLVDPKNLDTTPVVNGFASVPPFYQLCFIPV

SMILES | CYP2C9 AC50 (half-maximal activity concentration)
O=C(NC1CCN(CCc2c[nH]c3ccccc23)CC1)c1ccccc1 [Indoramin hydrochloride] | Inactive
CC[N+](C)(CC)CCOC(=O)C1c2ccccc2Oc2ccccc21 [Methantheline bromide] | Inactive
O=C1NC2CCCCN2C12CCN(CCCN1c3ccccc3CCc3ccc(Cl)cc31)CC2 (centres unmarked) [Mosapramine] | Inconclusive inhibitor
CN1CCC(=C2c3ccccc3Sc3ccccc32)CC1 [Pimethixene maleate] | Inactive

molecular target: T2, human CYP2C9; assay: biochemical; settings: not given

SMILES | AC50
COC(=O)C(C)Oc1ccc(Oc2ncc(C(F)(F)F)cc2Cl)cc1 (centres unmarked) [Haloxyfop-methyl] | 5.74 µM
OC1(c2ccc(Cl)c(C(F)(F)F)c2)CCN(CCCC(c2ccc(F)cc2)c2ccc(F)cc2)CC1 [Penfluridol] | 10.3 ± 1.85 µM

same assay, conditions: CYP2C9 AC50 (half-maximal activity concentration)

SMILES | AC50
O=C(C(=O)c1ccccc1)c1ccccc1 [1,2-Diphenylethanedione] | 1.13 µM
O=C(Cl)c1cccc(C(=O)Cl)c1 [1,3-Benzenedicarbonyl dichloride] | 68.7 µM
ClC(Cl)(Cl)c1ccc(C(Cl)(Cl)Cl)cc1 [1,4-Bis(trichloromethyl)benzene] | 34.2 µM
Oc1c(Br)cc(Br)cc1Br [2,4,6-Tribromophenol] | 38.5 µM
Oc1c(I)cc(I)cc1I [2,4,6-Triiodophenol] | 41.2 µM
O=C(O)c1cc(Cl)cc(Cl)c1 [3,5-Dichlorobenzoic acid] | 58.9 µM
O=C(CCCN1CCN(c2ccccn2)CC1)c1ccc(F)cc1 [Azaperone] | 5.25 µM
O=c1[nH]c2ccc([S+]([O-])CCN3CCC(Cc4ccc(F)cc4)CC3)cc2o1 (centres unmarked) [Besonprodil] | 6.44 µM
CC1(C)C(C=C(Cl)Cl)C1C(=O)OC(C#N)c1ccc(F)c(Oc2ccccc2)c1 (centres unmarked) [Cyfluthrin] | 3.92 µM
CCOc1ccc(C(C)(C)COCc2cccc(Oc3ccccc3)c2)cc1 [Etofenprox] | 7.13 µM
CCOC(=O)c1nc(C(Cl)(Cl)Cl)n(-c2ccc(Cl)cc2Cl)n1 [Fenchlorazole-ethyl] | 3.92 µM
Cc1cccc(C)c1NC(=O)CN1CCN(CCCC(c2ccc(F)cc2)c2ccc(F)cc2)CC1 [Lidoflazine] | 21.3 µM
c1ccc(P(c2ccccc2)c2ccccc2)cc1 [Triphenylphosphine] | 7.13 µM

molecular target: T3, human CYP2C19 (Homo sapiens, UniProt P33261); assay: not given; settings: not given
T3 sequence (P33261 whole entry): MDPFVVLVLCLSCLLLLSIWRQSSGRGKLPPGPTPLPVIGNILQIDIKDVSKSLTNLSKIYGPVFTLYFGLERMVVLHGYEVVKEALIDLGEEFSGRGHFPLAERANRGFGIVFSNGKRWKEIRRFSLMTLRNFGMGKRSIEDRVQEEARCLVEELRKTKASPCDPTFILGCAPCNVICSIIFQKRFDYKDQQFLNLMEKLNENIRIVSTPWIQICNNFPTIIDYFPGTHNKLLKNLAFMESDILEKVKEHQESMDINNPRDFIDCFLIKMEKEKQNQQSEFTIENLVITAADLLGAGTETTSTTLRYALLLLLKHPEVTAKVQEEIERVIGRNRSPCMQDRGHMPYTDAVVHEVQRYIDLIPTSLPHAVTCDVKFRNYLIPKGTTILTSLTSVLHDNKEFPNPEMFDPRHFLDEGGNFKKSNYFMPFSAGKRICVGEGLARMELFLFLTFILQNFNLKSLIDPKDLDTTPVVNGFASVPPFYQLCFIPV

SMILES | CYP2C19 AC50 (half-maximal activity concentration)
O=C(Cl)c1cccc(C(=O)Cl)c1 [1,3-Benzenedicarbonyl dichloride] | Inactive
ClC(Cl)(Cl)c1ccc(C(Cl)(Cl)Cl)cc1 [1,4-Bis(trichloromethyl)benzene] | Inconclusive inhibitor
Oc1c(Br)cc(Br)cc1Br [2,4,6-Tribromophenol] | Inconclusive inhibitor
O=C(O)c1cc(Cl)cc(Cl)c1 [3,5-Dichlorobenzoic acid] | Inconclusive inhibitor
O=C(NC1CCN(CCc2c[nH]c3ccccc23)CC1)c1ccccc1 [Indoramin hydrochloride] | Inactive
CC[N+](C)(CC)CCOC(=O)C1c2ccccc2Oc2ccccc21 [Methantheline bromide] | Inactive
O=C1NC2CCCCN2C12CCN(CCCN1c3ccccc3CCc3ccc(Cl)cc31)CC2 (centres unmarked) [Mosapramine] | Inconclusive inhibitor

molecular target: CYP3A4 (Homo sapiens, UniProt P08684); assay: biochemical; settings: not given
Sequence (P08684 whole entry): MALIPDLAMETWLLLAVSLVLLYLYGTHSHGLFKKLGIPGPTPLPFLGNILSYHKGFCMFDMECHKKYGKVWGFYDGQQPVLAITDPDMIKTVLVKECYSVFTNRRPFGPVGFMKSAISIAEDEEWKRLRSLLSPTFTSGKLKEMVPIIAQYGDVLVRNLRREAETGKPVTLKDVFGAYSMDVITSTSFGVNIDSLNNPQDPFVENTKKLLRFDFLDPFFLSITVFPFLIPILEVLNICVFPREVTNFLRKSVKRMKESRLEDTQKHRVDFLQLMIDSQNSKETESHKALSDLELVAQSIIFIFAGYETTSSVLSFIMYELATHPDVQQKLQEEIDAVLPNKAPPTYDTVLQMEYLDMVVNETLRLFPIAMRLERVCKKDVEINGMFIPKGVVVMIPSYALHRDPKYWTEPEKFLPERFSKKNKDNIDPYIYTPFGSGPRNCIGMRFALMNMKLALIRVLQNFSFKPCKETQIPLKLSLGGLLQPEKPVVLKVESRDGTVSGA

SMILES | AC50
COC(=O)C(C)Oc1ccc(Oc2ncc(C(F)(F)F)cc2Cl)cc1 (centres unmarked) [Haloxyfop-methyl] | 27.8 µM
OC1(c2ccc(Cl)c(C(F)(F)F)c2)CCN(CCCC(c2ccc(F)cc2)c2ccc(F)cc2)CC1 [Penfluridol] | 2.39 ± 0.41 µM

same assay, conditions: CYP3A4 AC50 (half-maximal activity concentration)

SMILES | AC50
O=C(C(=O)c1ccccc1)c1ccccc1 [1,2-Diphenylethanedione] | 35.4 µM
O=C(Cl)c1cccc(C(=O)Cl)c1 [1,3-Benzenedicarbonyl dichloride] | 26.8 µM
ClC(Cl)(Cl)c1ccc(C(Cl)(Cl)Cl)cc1 [1,4-Bis(trichloromethyl)benzene] | 45.9 µM
Oc1c(Br)cc(Br)cc1Br [2,4,6-Tribromophenol] | 72.8 µM
Oc1c(I)cc(I)cc1I [2,4,6-Triiodophenol] | 63.5 µM
O=C(O)c1cc(Cl)cc(Cl)c1 [3,5-Dichlorobenzoic acid] | 55.5 µM
O=C(CCCN1CCN(c2ccccn2)CC1)c1ccc(F)cc1 [Azaperone] | 5.97 µM
O=c1[nH]c2ccc([S+]([O-])CCN3CCC(Cc4ccc(F)cc4)CC3)cc2o1 (centres unmarked) [Besonprodil] | 21.5 µM
CC1(C)C(C=C(Cl)Cl)C1C(=O)OC(C#N)c1ccc(F)c(Oc2ccccc2)c1 (centres unmarked) [Cyfluthrin] | 4.01 µM
CCOc1ccc(C(C)(C)COCc2cccc(Oc3ccccc3)c2)cc1 [Etofenprox] | 35.7 µM
CCOC(=O)c1nc(C(Cl)(Cl)Cl)n(-c2ccc(Cl)cc2Cl)n1 [Fenchlorazole-ethyl] | 3.26 µM
O=C(NC1CCN(CCc2c[nH]c3ccccc23)CC1)c1ccccc1 [Indoramin hydrochloride] | 15.6 µM
Cc1cccc(C)c1NC(=O)CN1CCN(CCCC(c2ccc(F)cc2)c2ccc(F)cc2)CC1 [Lidoflazine] | 2.26 µM
CC[N+](C)(CC)CCOC(=O)C1c2ccccc2Oc2ccccc21 [Methantheline bromide] | 15.6 µM
O=C1NC2CCCCN2C12CCN(CCCN1c3ccccc3CCc3ccc(Cl)cc31)CC2 (centres unmarked) [Mosapramine] | 6.79 µM
CN1CCC(=C2c3ccccc3Sc3ccccc32)CC1 [Pimethixene maleate] | 16.1 µM
c1ccc(P(c2ccccc2)c2ccccc2)cc1 [Triphenylphosphine] | 36.2 µM

molecular target: T1, human CYP1A2; assay: biochemical; settings: not given

SMILES | AC50
COC(=O)C(C)Oc1ccc(Oc2ncc(C(F)(F)F)cc2Cl)cc1 (centres unmarked) [Haloxyfop-methyl] | 46.8 µM
OC1(c2ccc(Cl)c(C(F)(F)F)c2)CCN(CCCC(c2ccc(F)cc2)c2ccc(F)cc2)CC1 [Penfluridol] | 29.9 ± 4.12 µM

same assay, conditions: CYP1A2 AC50 (half-maximal activity concentration)

SMILES | AC50
O=C(C(=O)c1ccccc1)c1ccccc1 [1,2-Diphenylethanedione] | 12.1 µM
ClC(Cl)(Cl)c1ccc(C(Cl)(Cl)Cl)cc1 [1,4-Bis(trichloromethyl)benzene] | 5.66 µM
Oc1c(Br)cc(Br)cc1Br [2,4,6-Tribromophenol] | 51.7 µM
Oc1c(I)cc(I)cc1I [2,4,6-Triiodophenol] | 37.2 µM
O=C(O)c1cc(Cl)cc(Cl)c1 [3,5-Dichlorobenzoic acid] | 57.8 µM

molecular target: T3, human CYP2C19; assay: biochemical; settings: not given

SMILES | AC50
COC(=O)C(C)Oc1ccc(Oc2ncc(C(F)(F)F)cc2Cl)cc1 (centres unmarked) [Haloxyfop-methyl] | 50.9 µM
OC1(c2ccc(Cl)c(C(F)(F)F)c2)CCN(CCCC(c2ccc(F)cc2)c2ccc(F)cc2)CC1 [Penfluridol] | 16.6 ± 4.88 µM

same assay, conditions: CYP2C19 AC50 (half-maximal activity concentration)

SMILES | AC50
O=C(C(=O)c1ccccc1)c1ccccc1 [1,2-Diphenylethanedione] | 14.8 µM
Oc1c(I)cc(I)cc1I [2,4,6-Triiodophenol] | 61.9 µM
O=C(CCCN1CCN(c2ccccn2)CC1)c1ccc(F)cc1 [Azaperone] | 32.7 µM
O=c1[nH]c2ccc([S+]([O-])CCN3CCC(Cc4ccc(F)cc4)CC3)cc2o1 (centres unmarked) [Besonprodil] | 50.9 µM
CC1(C)C(C=C(Cl)Cl)C1C(=O)OC(C#N)c1ccc(F)c(Oc2ccccc2)c1 (centres unmarked) [Cyfluthrin] | 10.4 µM
CCOc1ccc(C(C)(C)COCc2cccc(Oc3ccccc3)c2)cc1 [Etofenprox] | 16.4 µM
CCOC(=O)c1nc(C(Cl)(Cl)Cl)n(-c2ccc(Cl)cc2Cl)n1 [Fenchlorazole-ethyl] | 7.02 µM
Cc1cccc(C)c1NC(=O)CN1CCN(CCCC(c2ccc(F)cc2)c2ccc(F)cc2)CC1 [Lidoflazine] | 36.7 µM
CN1CCC(=C2c3ccccc3Sc3ccccc32)CC1 [Pimethixene maleate] | 21.7 µM
c1ccc(P(c2ccccc2)c2ccccc2)cc1 [Triphenylphosphine] | 8.69 µM

molecular target: human CYP2D6 (Homo sapiens, UniProt P10635); assay: biochemical; settings: not given
Sequence (P10635 whole entry): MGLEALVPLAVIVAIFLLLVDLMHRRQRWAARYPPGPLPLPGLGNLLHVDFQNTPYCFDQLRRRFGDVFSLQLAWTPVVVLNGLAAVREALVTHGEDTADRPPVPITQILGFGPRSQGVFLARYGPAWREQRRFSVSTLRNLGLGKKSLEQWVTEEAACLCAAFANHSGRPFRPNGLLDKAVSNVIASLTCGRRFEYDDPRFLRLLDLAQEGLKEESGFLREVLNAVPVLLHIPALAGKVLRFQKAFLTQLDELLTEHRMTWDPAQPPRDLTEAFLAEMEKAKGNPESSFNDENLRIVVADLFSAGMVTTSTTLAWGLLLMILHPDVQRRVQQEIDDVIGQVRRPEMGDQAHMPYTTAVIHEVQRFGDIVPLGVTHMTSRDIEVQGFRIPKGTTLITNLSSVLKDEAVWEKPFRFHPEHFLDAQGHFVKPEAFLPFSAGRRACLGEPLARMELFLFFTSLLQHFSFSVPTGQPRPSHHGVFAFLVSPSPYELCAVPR

SMILES | AC50
COC(=O)C(C)Oc1ccc(Oc2ncc(C(F)(F)F)cc2Cl)cc1 (centres unmarked) [Haloxyfop-methyl] | 46.8 µM
OC1(c2ccc(Cl)c(C(F)(F)F)c2)CCN(CCCC(c2ccc(F)cc2)c2ccc(F)cc2)CC1 [Penfluridol] | 5.85 ± 1.65 µM

same assay, conditions: CYP2D6 AC50 (half-maximal activity concentration)

SMILES | AC50
O=C(C(=O)c1ccccc1)c1ccccc1 [1,2-Diphenylethanedione] | 29.4 µM
O=C(Cl)c1cccc(C(=O)Cl)c1 [1,3-Benzenedicarbonyl dichloride] | 24.9 µM
ClC(Cl)(Cl)c1ccc(C(Cl)(Cl)Cl)cc1 [1,4-Bis(trichloromethyl)benzene] | 58.6 µM
Oc1c(Br)cc(Br)cc1Br [2,4,6-Tribromophenol] | 68.4 µM
Oc1c(I)cc(I)cc1I [2,4,6-Triiodophenol] | 80.7 µM
O=C(O)c1cc(Cl)cc(Cl)c1 [3,5-Dichlorobenzoic acid] | 27.8 µM
O=C(CCCN1CCN(c2ccccn2)CC1)c1ccc(F)cc1 [Azaperone] | 12.4 µM
O=c1[nH]c2ccc([S+]([O-])CCN3CCC(Cc4ccc(F)cc4)CC3)cc2o1 (centres unmarked) [Besonprodil] | 33 µM
CC1(C)C(C=C(Cl)Cl)C1C(=O)OC(C#N)c1ccc(F)c(Oc2ccccc2)c1 (centres unmarked) [Cyfluthrin] | 22.2 µM
CCOc1ccc(C(C)(C)COCc2cccc(Oc3ccccc3)c2)cc1 [Etofenprox] | 34.3 µM
CCOC(=O)c1nc(C(Cl)(Cl)Cl)n(-c2ccc(Cl)cc2Cl)n1 [Fenchlorazole-ethyl] | 13.1 µM
O=C(NC1CCN(CCc2c[nH]c3ccccc23)CC1)c1ccccc1 [Indoramin hydrochloride] | 4.31 µM
Cc1cccc(C)c1NC(=O)CN1CCN(CCCC(c2ccc(F)cc2)c2ccc(F)cc2)CC1 [Lidoflazine] | 5.18 µM
CC[N+](C)(CC)CCOC(=O)C1c2ccccc2Oc2ccccc21 [Methantheline bromide] | 3.29 µM
O=C1NC2CCCCN2C12CCN(CCCN1c3ccccc3CCc3ccc(Cl)cc31)CC2 (centres unmarked) [Mosapramine] | 6.53 µM
CN1CCC(=C2c3ccccc3Sc3ccccc32)CC1 [Pimethixene maleate] | 3.22 µM
c1ccc(P(c2ccccc2)c2ccccc2)cc1 [Triphenylphosphine] | 35.7 µM
